pIC50: −log10 of the molar value. Activity calls are given as the source filed them. The calls are words filed in the database; no cut-off is given here.
Assays:
[1] = target: Hepatocyte growth factor receptor (Homo sapiens, UniProt P08581); assay: Inhibition of recombinant human N-terminal GST-tagged MET (956 to 1390 residues) cytoplasmic domain expressed in baculovirus expression system using Srctide as substrate incubated for 1 hr by mobility shift assay
[2] = target: ALK tyrosine kinase receptor (Homo sapiens, UniProt Q9UM73, L1196M); assay: Inhibition of recombinant human N-terminal GST-tagged ALK (1058 to 1620 residues) cytoplasmic domain L1196M mutant expressed in baculovirus expression system using srctide as substrate incubated for 1 hr by mobility shift assay
ALK tyrosine kinase receptor (Homo sapiens, UniProt Q9UM73, L1196M), sequence (Q9UM73 19-1620 L1196M limits assumed): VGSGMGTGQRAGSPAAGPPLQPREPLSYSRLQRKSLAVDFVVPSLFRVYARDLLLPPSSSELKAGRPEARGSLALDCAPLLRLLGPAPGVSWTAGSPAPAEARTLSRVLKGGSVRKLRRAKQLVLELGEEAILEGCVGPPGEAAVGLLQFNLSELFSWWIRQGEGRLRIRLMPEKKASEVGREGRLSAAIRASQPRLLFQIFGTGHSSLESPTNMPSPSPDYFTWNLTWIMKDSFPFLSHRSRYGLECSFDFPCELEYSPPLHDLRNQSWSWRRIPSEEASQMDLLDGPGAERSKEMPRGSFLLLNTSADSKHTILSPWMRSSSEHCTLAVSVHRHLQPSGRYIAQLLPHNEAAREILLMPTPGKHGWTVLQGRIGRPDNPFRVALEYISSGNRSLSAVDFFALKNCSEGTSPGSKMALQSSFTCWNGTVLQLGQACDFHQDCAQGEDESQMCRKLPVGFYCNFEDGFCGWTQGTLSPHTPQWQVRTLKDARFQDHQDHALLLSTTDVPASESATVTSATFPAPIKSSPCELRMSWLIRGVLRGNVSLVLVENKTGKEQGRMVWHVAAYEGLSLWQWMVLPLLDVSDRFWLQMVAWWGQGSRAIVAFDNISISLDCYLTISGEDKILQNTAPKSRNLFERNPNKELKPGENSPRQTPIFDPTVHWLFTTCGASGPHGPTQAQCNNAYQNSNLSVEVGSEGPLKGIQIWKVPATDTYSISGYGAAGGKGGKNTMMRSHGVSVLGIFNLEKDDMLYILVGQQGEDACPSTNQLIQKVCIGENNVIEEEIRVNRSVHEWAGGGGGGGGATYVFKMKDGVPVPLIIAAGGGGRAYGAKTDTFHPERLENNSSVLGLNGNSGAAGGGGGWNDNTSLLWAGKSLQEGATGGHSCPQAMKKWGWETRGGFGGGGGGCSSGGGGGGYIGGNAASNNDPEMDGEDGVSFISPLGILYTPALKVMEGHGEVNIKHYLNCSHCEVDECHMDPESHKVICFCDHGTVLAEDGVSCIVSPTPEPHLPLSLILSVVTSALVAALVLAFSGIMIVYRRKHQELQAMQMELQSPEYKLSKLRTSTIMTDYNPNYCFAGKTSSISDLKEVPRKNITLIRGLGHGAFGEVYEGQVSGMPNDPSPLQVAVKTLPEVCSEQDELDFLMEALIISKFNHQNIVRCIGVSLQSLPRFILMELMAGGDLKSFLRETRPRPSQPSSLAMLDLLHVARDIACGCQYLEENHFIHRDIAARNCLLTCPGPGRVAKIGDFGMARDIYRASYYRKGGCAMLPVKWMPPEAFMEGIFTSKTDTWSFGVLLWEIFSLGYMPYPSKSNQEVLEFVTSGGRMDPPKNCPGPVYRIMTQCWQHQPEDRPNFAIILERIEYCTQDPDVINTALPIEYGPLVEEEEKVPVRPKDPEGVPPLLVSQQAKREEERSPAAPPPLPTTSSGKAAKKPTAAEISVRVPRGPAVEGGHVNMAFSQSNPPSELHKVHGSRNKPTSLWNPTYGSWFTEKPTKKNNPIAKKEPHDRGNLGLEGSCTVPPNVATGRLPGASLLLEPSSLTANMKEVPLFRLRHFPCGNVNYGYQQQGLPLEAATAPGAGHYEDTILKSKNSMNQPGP

[3] = target: ALK tyrosine kinase receptor (Homo sapiens, UniProt Q9UM73); assay: Inhibition of recombinant human N-terminal GST-tagged ALK (1058 to 1620 residues) cytoplasmic domain expressed in baculovirus expression system using srctide as substrate incubated for 1 hr by mobility shift assay
NCI-H2228 [4] = assay: Antiproliferative activity against human NCI-H2228 cells assessed as reduction in cell viability incubated for 72 hrs by MTT assay; assay type: functional, cell-based; details: NCI-H2228, 72 h
KARPAS-299 = assay: Antiproliferative activity against human KARPAS299 cells assessed as reduction in cell viability incubated for 72 hrs by MTT assay; assay type: functional, cell-based; details: KARPAS-299, 72 h
HCC78 = assay: Antiproliferative activity against human HCC78 cells assessed as reduction in cell viability incubated for 72 hrs by MTT assay; assay type: functional, cell-based; details: HCC78, 72 h
A549 [5] = assay: Antiproliferative activity against human A549 cells harbouring […] mutant assessed as reduction in cell viability incubated for 72 hrs by MTT assay; assay type: functional, cell-based; details: A549, 72 h
[6] = target: Proto-oncogene tyrosine-protein kinase ROS (Homo sapiens, UniProt P08922); assay: Inhibition of recombinant human N-terminal GST-tagged ROS (1883 to 2347 residues) cytoplasmic domain expressed in baculovirus expression system using IRS1 as substrate incubated for 1 hr by mobility shift assay
[7] = target: Epidermal growth factor receptor (Homo sapiens, UniProt P00533)
Epidermal growth factor receptor, sequence (P00533 whole entry, the tested form may be a part): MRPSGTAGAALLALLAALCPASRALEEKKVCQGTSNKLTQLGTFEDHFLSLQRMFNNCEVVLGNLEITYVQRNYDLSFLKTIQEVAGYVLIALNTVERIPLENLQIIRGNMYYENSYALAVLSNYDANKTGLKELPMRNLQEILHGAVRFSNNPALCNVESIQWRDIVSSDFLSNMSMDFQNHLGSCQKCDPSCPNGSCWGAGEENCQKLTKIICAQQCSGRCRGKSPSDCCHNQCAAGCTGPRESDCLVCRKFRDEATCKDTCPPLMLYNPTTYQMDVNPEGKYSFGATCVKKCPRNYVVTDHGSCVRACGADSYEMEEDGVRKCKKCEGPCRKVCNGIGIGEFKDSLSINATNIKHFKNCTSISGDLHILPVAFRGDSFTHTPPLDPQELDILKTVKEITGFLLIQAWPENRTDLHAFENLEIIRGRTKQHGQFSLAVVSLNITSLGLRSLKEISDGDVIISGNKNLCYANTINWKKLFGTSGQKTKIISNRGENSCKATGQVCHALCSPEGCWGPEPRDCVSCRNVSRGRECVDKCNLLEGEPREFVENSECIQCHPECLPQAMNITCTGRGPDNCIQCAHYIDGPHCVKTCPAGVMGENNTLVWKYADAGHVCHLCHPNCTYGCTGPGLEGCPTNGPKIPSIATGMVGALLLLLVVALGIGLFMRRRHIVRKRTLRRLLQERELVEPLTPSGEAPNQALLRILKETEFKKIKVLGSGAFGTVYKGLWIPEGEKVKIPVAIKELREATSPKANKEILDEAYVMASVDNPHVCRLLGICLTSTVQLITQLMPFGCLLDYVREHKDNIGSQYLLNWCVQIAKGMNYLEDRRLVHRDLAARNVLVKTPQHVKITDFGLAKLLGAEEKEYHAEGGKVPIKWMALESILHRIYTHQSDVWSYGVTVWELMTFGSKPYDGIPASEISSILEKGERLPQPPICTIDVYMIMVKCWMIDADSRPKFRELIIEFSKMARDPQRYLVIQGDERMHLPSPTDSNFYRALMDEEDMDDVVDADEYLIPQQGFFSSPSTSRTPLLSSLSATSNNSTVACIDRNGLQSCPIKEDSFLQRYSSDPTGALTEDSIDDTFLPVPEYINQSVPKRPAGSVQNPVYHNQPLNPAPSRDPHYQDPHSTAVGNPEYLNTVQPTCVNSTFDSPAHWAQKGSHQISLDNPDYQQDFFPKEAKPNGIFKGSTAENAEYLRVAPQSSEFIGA
Description: Inhibition of recombinant human N-terminal GST-tagged EGFR (669 to 1210 residues) cytoplasmic domain expressed in baculovirus expression system using Srctide as substrate incubated for 1 hr by mobility shift assay

[8] = target: ALK tyrosine kinase receptor (Homo sapiens, UniProt Q9UM73, G1202R); assay: Inhibition of recombinant human N-terminal GST-tagged ALK (1058 to 1620 residues) cytoplasmic domain G1202R mutant using srctide as substrate incubated for 1 hr by mobility shift assay
ALK tyrosine kinase receptor (Homo sapiens, UniProt Q9UM73, G1202R), sequence (Q9UM73 19-1620 G1202R limits assumed): as the sequence (Q9UM73 19-1620 L1196M limits assumed) above, with M1178L, G1184R counted along it

A549 [9] = assay: cells; details: Homo sapiens, A549, 72 h
HT-29 = assay: cells; details: Homo sapiens, HT-29, 72 h
Description: Antiproliferative activity against human HT-29 cells assessed as reduction in cell viability incubated for 72 hrs by MTT assay

A549 [10] = assay: Potency index, ratio of IC50 of ceritinib to IC50 of compound for antiproliferative activity against human A549 cells harbouring […] mutant assessed as reduction in cell viability incubated for 72 hrs by MTT assay; assay type: functional
NCI-H2228 [11] = assay: Induction of apoptosis in human NCI-H2228 cells assessed as increase in cell membrane damage incubated for 48 hrs by Hoechst 33258 staining based fluorescence microscopy; assay type: functional
NCI-H2228 [12] = assay: Induction of apoptosis in human NCI-H2228 cells assessed as increase in nuclei damage incubated for 48 hrs by Hoechst 33258 staining based fluorescence microscopy; assay type: functional, cell-based
NCI-H2228 [13] = assay: Induction of apoptosis in human NCI-H2228 cells assessed as increase in nuclear shrinkage incubated for 48 hrs by AO/EB staining based fluorescence microscopy; assay type: functional, cell-based
NCI-H2228 [14] = assay: Induction of apoptosis in human NCI-H2228 cells assessed as increase in nuclear fragmentation incubated for 48 hrs by AO/EB staining based fluorescence microscopy; assay type: functional, cell-based
NCI-H2228 [15] = assay: Induction of apoptosis in human NCI-H2228 cells assessed as increase in nuclear fragmentation at 30 nM incubated for 48 hrs by AO/EB staining based fluorescence microscopy; assay type: functional, cell-based
NCI-H2228 [16] = assay: Induction of apoptosis in human NCI-H2228 cells assessed as increase in nuclear shrinkage at 30 nM incubated for 48 hrs by AO/EB staining based fluorescence microscopy; assay type: functional, cell-based
NCI-H2228 [17] = assay: Induction of apoptosis in human NCI-H2228 cells assessed as increase in cell membrane damage at 30 nM incubated for 48 hrs by Hoechst 33258 staining based fluorescence microscopy; assay type: functional
NCI-H2228 [18] = assay: Induction of apoptosis in human NCI-H2228 cells assessed as increase in nuclei damage at 30 nM incubated for 48 hrs by Hoechst 33258 staining based fluorescence microscopy; assay type: functional, cell-based

Hepatocyte growth factor receptor, sequence (P08581 whole entry, the tested form may be a part): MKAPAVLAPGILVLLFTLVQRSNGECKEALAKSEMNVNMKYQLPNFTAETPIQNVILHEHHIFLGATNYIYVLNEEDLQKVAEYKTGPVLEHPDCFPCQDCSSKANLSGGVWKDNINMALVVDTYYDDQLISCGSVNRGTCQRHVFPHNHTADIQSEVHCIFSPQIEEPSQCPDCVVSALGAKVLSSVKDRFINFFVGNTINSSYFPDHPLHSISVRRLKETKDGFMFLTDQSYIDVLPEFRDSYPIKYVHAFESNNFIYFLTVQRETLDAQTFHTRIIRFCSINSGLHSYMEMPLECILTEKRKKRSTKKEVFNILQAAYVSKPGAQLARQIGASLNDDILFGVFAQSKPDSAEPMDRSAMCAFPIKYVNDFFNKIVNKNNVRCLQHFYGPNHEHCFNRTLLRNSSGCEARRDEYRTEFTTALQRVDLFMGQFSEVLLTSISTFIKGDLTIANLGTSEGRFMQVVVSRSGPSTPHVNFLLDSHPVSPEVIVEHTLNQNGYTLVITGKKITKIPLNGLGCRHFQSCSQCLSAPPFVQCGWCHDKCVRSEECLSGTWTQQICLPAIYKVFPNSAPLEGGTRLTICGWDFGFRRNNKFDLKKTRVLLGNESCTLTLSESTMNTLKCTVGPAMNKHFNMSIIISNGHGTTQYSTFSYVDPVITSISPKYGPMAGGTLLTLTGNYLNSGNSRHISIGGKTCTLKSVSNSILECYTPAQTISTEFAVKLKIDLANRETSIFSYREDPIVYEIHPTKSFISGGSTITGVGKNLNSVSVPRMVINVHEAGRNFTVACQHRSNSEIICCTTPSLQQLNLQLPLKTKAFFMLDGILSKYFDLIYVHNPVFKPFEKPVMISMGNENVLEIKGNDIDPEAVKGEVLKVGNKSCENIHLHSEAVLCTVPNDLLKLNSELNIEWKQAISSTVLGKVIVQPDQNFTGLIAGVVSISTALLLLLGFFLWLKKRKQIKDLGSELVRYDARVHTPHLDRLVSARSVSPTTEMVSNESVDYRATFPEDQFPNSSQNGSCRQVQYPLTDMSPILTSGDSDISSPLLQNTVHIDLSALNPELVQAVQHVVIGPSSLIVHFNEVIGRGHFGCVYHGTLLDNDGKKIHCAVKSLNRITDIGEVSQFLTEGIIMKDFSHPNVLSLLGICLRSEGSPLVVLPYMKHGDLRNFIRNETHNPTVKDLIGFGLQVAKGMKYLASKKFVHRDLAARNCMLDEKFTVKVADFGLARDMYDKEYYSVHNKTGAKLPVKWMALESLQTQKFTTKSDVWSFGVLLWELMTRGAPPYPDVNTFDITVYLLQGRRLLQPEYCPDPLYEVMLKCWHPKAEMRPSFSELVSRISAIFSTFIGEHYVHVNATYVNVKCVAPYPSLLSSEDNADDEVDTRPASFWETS

| SMILES | pIC50 [1] | pIC50 [2] | pIC50 [3] | pIC50 (NCI-H2228 [4]) | pIC50 (KARPAS-299) | pIC50 (HCC78) | pIC50 (A549 [5]) | pIC50 [6] | pIC50 [7] | pIC50 [8] | pIC50 (A549 [9]) | pIC50 (HT-29) | also measured |
| --- | --- | --- | --- | --- | --- | --- | --- | --- | --- | --- | --- | --- | --- |
| COc1cc(NC(=O)N2CCN(CCO)CC2)ccc1Nc1ncc(Cl)c(Nc2ccccc2NC(C)=O)n1 | < 6.00 | 8.57 | 8.20 | 6.59 | 7.03 | 6.89 | 6.57 | 8.77 | < 6.00 | 8.20 | < 5.00 | 5.39 |  |
| COc1cc(NC(=O)N2CCOCC2)ccc1Nc1ncc(Cl)c(Nc2ccccc2NC(C)=O)n1 | < 6.00 | 9.04 | 8.68 | 7.25 | 7.57 | 7.39 | 7.52 | 9.14 | < 6.00 | 8.37 | 5.79 | < 5.00 | Ratio IC50 (A549 [10]): 16.5; Activity (NCI-H2228 [11]): Dose-dependent effect; Activity (NCI-H2228 [12]): Dose-dependent effect; Activity (NCI-H2228 [13]): Dose-dependent effect; Activity (NCI-H2228 [14]): Dose-dependent effect; Activity (NCI-H2228 [15]): Active; Activity (NCI-H2228 [16]): Active; Activity (NCI-H2228 [17]): Active; Activity (NCI-H2228 [18]): Active |
| COc1cc(N2CCCNC2=O)ccc1Nc1ncc(Cl)c(Nc2ccccc2NC(C)=O)n1 | < 6.00 | 8.29 | 8.33 | 6.66 | 7.00 | 7.05 | 6.77 | 8.28 | < 6.00 | 7.99 | < 5.00 | 5.22 |  |
| COc1cc(NC(=O)C2CC2)ccc1Nc1ncc(Cl)c(Nc2ccccc2NC(C)=O)n1 | < 6.00 | 8.18 | 8.39 | 6.31 | 5.97 | 6.64 | 6.03 | 8.49 | 6.21 | 7.94 | < 5.00 | 5.53 |  |
| COc1cc(NC(=O)N2CCCC2)ccc1Nc1ncc(Cl)c(Nc2ccccc2NC(C)=O)n1 | < 6.00 | 8.43 | 8.29 | 7.10 | 6.80 | 6.06 | 6.44 | 9.01 | < 6.00 | 8.15 | < 5.00 | 5.90 |  |
| COc1cc(NC(=O)N2CCC(C)CC2)ccc1Nc1ncc(Cl)c(Nc2ccccc2NC(C)=O)n1 |  |  |  | 6.21 | 6.77 | 6.28 | 5.90 |  |  |  | < 5.00 | 5.49 |  |
| COc1cc(NC2CCCCC2)ccc1Nc1ncc(Cl)c(Nc2ccccc2NC(C)=O)n1 |  |  |  | 6.24 | 6.06 | 6.41 | 5.66 |  |  |  | < 5.00 | 5.33 |  |
| COc1cc(N2CCCC2=O)ccc1Nc1ncc(Cl)c(Nc2ccccc2NC(C)=O)n1 | 6.27 | 8.54 | 8.21 | 6.66 | 6.66 | 7.01 | 6.39 | 8.36 | < 6.00 | 7.80 | 5.38 | 5.82 |  |
| COc1cc(NC(=O)NC2CCC(=O)CC2)ccc1Nc1ncc(Cl)c(Nc2ccccc2NC(C)=O)n1 | 6.49 | 8.41 | 8.60 | 6.26 | 7.11 | 7.17 | 6.72 | 8.43 | < 6.00 | 8.03 | 5.76 | < 5.00 |  |
| COc1cc(NC(=O)NCCCN2CCOCC2)ccc1Nc1ncc(Cl)c(Nc2ccccc2NC(C)=O)n1 |  |  |  | 6.11 | 6.31 | 6.57 | 5.96 |  |  |  | 5.51 | < 5.00 |  |
| COc1cc(N2C(=O)CCC2=O)ccc1Nc1ncc(Cl)c(Nc2ccccc2NC(C)=O)n1 |  |  |  | 6.20 | 6.68 | 6.41 | 6.21 |  |  |  | < 5.00 | < 5.00 |  |
| COc1cc(NC(=O)N2CCC2)ccc1Nc1ncc(Cl)c(Nc2ccccc2NC(C)=O)n1 |  |  |  | 6.47 | 6.41 | 6.25 | 5.94 |  |  |  | 5.61 | 5.17 |  |
| COc1cc(NC(=O)N[C@H]2CC[C@H](C)CC2)ccc1Nc1ncc(Cl)c(Nc2ccccc2NC(C)=O)n1 |  |  |  | 6.28 | 6.08 | 6.39 | 5.62 |  |  |  | 5.39 | < 5.00 |  |
| Cc1cc(Nc2ncc(Cl)c(Nc3ccccc3S(=O)(=O)C(C)C)n2)c(OC(C)C)cc1C1CCNCC1 [CERITINIB] | 6.57 |  |  | 7.35 | 7.43 | 7.41 | 6.29 |  |  |  | 5.84 | 5.99 |  |
| CCOC(=O)C1=C(Nc2ccc(Nc3ncc(Cl)c(Nc4ccccc4NC(C)=O)n3)c(OC)c2)CCC1 |  |  |  | 5.60 | 5.30 | 6.04 | 5.50 |  |  |  | < 5.00 | < 5.00 |  |
| COc1cc(NC(=O)NN2CCOCC2)ccc1Nc1ncc(Cl)c(Nc2ccccc2NC(C)=O)n1 |  |  |  | 6.64 | 6.47 | 6.51 | 5.83 |  |  |  | < 5.00 | 5.65 |  |
| COc1cc(NC(=O)NC2CCN(C(=O)OC(C)(C)C)CC2)ccc1Nc1ncc(Cl)c(Nc2ccccc2NC(C)=O)n1 |  |  |  | 6.08 | 5.99 | 6.77 | 5.74 |  |  |  | < 5.00 | 5.26 |  |
| COc1cc(NC(=O)N2CCCCC2)ccc1Nc1ncc(Cl)c(Nc2ccccc2NC(C)=O)n1 |  |  |  | 6.19 | 6.62 | 6.68 | 6.01 |  |  |  | < 5.00 | < 5.00 |  |
| COc1cc(NC(=O)N2CC(O)C2)ccc1Nc1ncc(Cl)c(Nc2ccccc2NC(C)=O)n1 |  |  |  | 6.14 | 6.57 | 6.31 | 5.97 |  |  |  | < 5.00 | 5.38 |  |

Reference: ChEMBL document CHEMBL4396963, “An exploration of solvent-front region high affinity moiety leading to novel potent ALK & ROS1 dual inhibitors with mutant-combating effects” (Bioorg Med Chem, 2019)
